PMC9077470 (RSC Advances, 2018)
Converted amounts (≈) assume the structure as drawn.

Tests used:
[1] = Partition coefficients in n-octanol/phosphate buffer (pH 7.4); format: physicochemical; conditions: means ± SD, n = 3
Protocol: The phosphate buffer and octanol were mutually saturated at 20–22 °C before use. Samples were dissolved in the aqueous phase and the n-octanol/phosphate buffer mixtures were shaken for 24 h to reach a distribution equilibrium. The volumes of each phase were chosen so that the solute concentration in the aqueous phase, before and after distribution, could readily be measured using HPLC method. The partition coefficients (P) were calculated from the following equation: [drawing 1] where Ci and Cw represent the solute concentrations in the aqueous buffer phase before and after distribution, respectively, Vw represents the volume of the aqueous phase, and Vo is the volume of the octanol phase.[16]

[2] = no reference given; cited from earlier work
[3] = Aqueous solubility (equilibrium, distilled water); format: physicochemical; conditions: 25 °C, thermodynamic from solid, 25 ± 2 °C, means ± SD, n = 3, read-out: S (aqueous solubility)
Protocol: The mixtures were placed in an ultrasonic water bath for 10 min and then shaken for 24 h to establish a saturation equilibrium. Upon filtration, the filtrate was diluted with an appropriate amount of water and the mixture was analyzed by HPLC, the concentration of each compound in its saturated solution was calculated.

[4] = In vitro incubation with stomach contents of rats; format: in vitro ADME; conditions: rat stomach contents homogenate, pH 1.2, 37 °C, after 2 h of incubation
Protocol: (§1) After anesthetized with diethyl ether, rats were sacrificed and their contents of stomach and small intestine were collected and homogenized respectively, the homogenate was diluted with buffer solution (pH 1.2 for stomach contents, pH 6.8 for small intestine contents) to 20% (w/v). […] After 0.25, 0.5, 1.0, 1.5, 2.0, 3.0 and 4.0 h of incubation, 200 μL of samples were collected and replaced with the same volume of blank homogenate, then samples were centrifuged at 13 000 rpm for 5 min, filtered with membrane filter, and analyzed by HPLC. The residual contents of each prodrug in homogenate were calculated and the hydrolysis curves were drawn.

[5] = In vitro incubation with small intestine contents of rats; format: in vitro ADME; conditions: rat small intestine contents homogenate, pH 6.8, 37 °C, after 4 h of incubation
Protocol: as §1

[6] = In vivo incubation in the colon of rats; conditions: injected into tied rat colon, 6 h
Protocol: 6 hours later, rats were sacrificed and their colon contents were separated and homogenized in 40 mL of phosphate buffer (pH 7.4). The homogenate was sonicated for 5 min and centrifuged at 13 000 rpm for 5 min, then 0.2 mL of the supernatant was collected and mixed with 0.8 mL of methanol. Finally, samples were centrifuged, filtered and analyzed by HPLC. The residual contents of each prodrug in colon contents were calculated, and the hydrolysis ratio was calculated by the following equation: [drawing 2] where Wr is the residual amount of prodrugs in the colon contents and Wi is the initial amount of prodrugs that administered to rats.

[7] = system: TNBS-induced experimental colitis; assay: TNBS-induced colitis: body weight, survival rates, overall effect; format: in vivo, mice; conditions: TNBS colitis mice; Ols-DB as enema, others i.g.
Protocol: Colitis was induced according to the previous study.[18,19] Briefly, after 12 h of fasting, mice were anesthetized with intraperitoneal pentobarbital sodium (35 mg kg^-1) before the induction of colitis. 0.1 mL of 50% (v/v) ethanol contained 2.5% (v/v) TNBS was instilled into the colon 3.5-4 cm from the anus by a gavage needle. The mice were kept in a head-down position for 30 s to prevent leakage of the intracolonic instillation. Mice in the control group received normal saline instead of TNBS solution, a physical mixture of 5-ASA and sodium butyrate was used as the positive control. […] The treatments were given once daily for 5 continuous days starting 24 hours after the induction of colitis. After the induction of colitis, the body weight of each mice was recorded daily, and the curves of weight changes for each group were drawn to evaluate the TNBS-induced colitis. Meanwhile, the death of mice in each group was recorded daily and the final survival rates of mice were calculated.

[8] = system: TNBS-induced experimental colitis; assay: TNBS-induced colitis: disease activity index (DAI); format: in vivo, mice; conditions: vs positive control (5-ASA + sodium butyrate)
Protocol: Colitis was induced according to the previous study.[18,19] Briefly, after 12 h of fasting, mice were anesthetized with intraperitoneal pentobarbital sodium (35 mg kg^-1) before the induction of colitis. 0.1 mL of 50% (v/v) ethanol contained 2.5% (v/v) TNBS was instilled into the colon 3.5-4 cm from the anus by a gavage needle. The mice were kept in a head-down position for 30 s to prevent leakage of the intracolonic instillation. Mice in the control group received normal saline instead of TNBS solution, a physical mixture of 5-ASA and sodium butyrate was used as the positive control. […] The treatments were given once daily for 5 continuous days starting 24 hours after the induction of colitis. DAI is ranged from 0 to 4 and it is the sum of scores given for body weight loss, stool consistency and presence or absence of fecal blood. The fecal occult blood of mice was evaluated by the ο-tolidine method.[22] A small amount of feces samples were smeared on a white plate. 2-3 drops of ο-tolidine solution (10 g L^-1, dissolved in acetic acid) were added into samples and mixed evenly. Then 2-3 drops of 3% H2O2 solution were added into the mixture, meanwhile, start the time and observe immediately. Scored as: normal, weak positive, green to light green developing over 2 min; +, positive, greenish-blue to deep green developing within 1 min; ++, positive, blue to bluish-green developing within 5-20 s; +++, very strong positive, intense blue color developing immediately.[23]

[9] = system: MPO activity in colonic tissues; assay: TNBS-induced colitis: MPO activity in colonic tissues; format: in vivo, mice
Protocol: Colitis was induced according to the previous study.[18,19] Briefly, after 12 h of fasting, mice were anesthetized with intraperitoneal pentobarbital sodium (35 mg kg^-1) before the induction of colitis. 0.1 mL of 50% (v/v) ethanol contained 2.5% (v/v) TNBS was instilled into the colon 3.5-4 cm from the anus by a gavage needle. The mice were kept in a head-down position for 30 s to prevent leakage of the intracolonic instillation. Mice in the control group received normal saline instead of TNBS solution, a physical mixture of 5-ASA and sodium butyrate was used as the positive control. […] The treatments were given once daily for 5 continuous days starting 24 hours after the induction of colitis. […] Samples were freeze-thawed three times, after which sonication was repeated. Homogenates were then centrifuged at 13 000 rpm for 30 min and MPO was extracted from the resulting supernatant.[25] MPO activity was measured by the assay kit according to its provider's instructions.

[10] = system: SOD, MDA, GSH, GSH-Px in colonic tissues; assay: TNBS-induced colitis: levels of SOD, MDA, GSH and GSH-Px in colonic tissues; format: in vivo, mice; conditions: vs TNBS group, p < 0.01
Protocol: Colitis was induced according to the previous study.[18,19] Briefly, after 12 h of fasting, mice were anesthetized with intraperitoneal pentobarbital sodium (35 mg kg^-1) before the induction of colitis. 0.1 mL of 50% (v/v) ethanol contained 2.5% (v/v) TNBS was instilled into the colon 3.5-4 cm from the anus by a gavage needle. The mice were kept in a head-down position for 30 s to prevent leakage of the intracolonic instillation. Mice in the control group received normal saline instead of TNBS solution, a physical mixture of 5-ASA and sodium butyrate was used as the positive control. […] The treatments were given once daily for 5 continuous days starting 24 hours after the induction of colitis. Colon tissue samples were homogenized with normal saline, the homogenate (10%, w/w) was centrifuged at 13 000 rpm for 15 min, and the resulting supernatant was diluted to 1% (w/w) for further assay. The protein levels of the colon homogenate were detected by a BCA protein assay kit. Then the activities of SOD and GSH-Px, and the levels of MDA and GSH of samples in each group were measured by the assay kits according to the provider's instructions.

| P (partition coefficient) [1] | logP at 24 h [1] | solubility at 24 h [3] [mg/mL] | residual content of prodrug in stomach contents [4] | residual content of prodrug in small intestine contents [5] [%] | hydrolysis ratio after in vivo incubation in rat colons [6] [%] | SMILES | half-time (t1/2) [2] [min] | therapeutic effects on the TNBS-induced UC (overall) [7] | DAI, compared with positive control [8] | MPO activity in colonic tissues ([9]; vs TNBS group, p < 0.01) | MPO activity, compared with positive control ([9]; vs positive control) | GSH-Px activities in the colon [10] | MDA levels in the colon [10] | SOD activities in the colon [10] |
| --- | --- | --- | --- | --- | --- | --- | --- | --- | --- | --- | --- | --- | --- | --- |
| 4.47 ± 0.21 | 0.65 ± 0.02 | – | – | – | – | Nc1ccc(O)c(C(=O)O)c1 [5-ASA, 5-aminosalicylic acid, reference compound] | – | – | – | – | – | – | – | – |
| – | – | – | – | – | – | CCCC(=O)O [Butyrate] | 6 | – | – | – | – | – | – | – |
| 1.45 ± 0.10 | 0.16 ± 0.03 | 310 ± 50 (≈ 1390 mM) | hardly hydrolyzed | 100 | 6.79 | CCCC(=O)Oc1ccc(N)cc1C(=O)O [5-ASB, 5-aminosalicylic acid butyrate] | – | certain therapeutic effects | better effects than the positive control | significantly decreased | significantly better than the positive control | increased | significantly decreased | increased |
